How the values were obtained:
[1] = tested on: Herpes Simplex Virus (HSV); details: cited from earlier work
Human PARP1 = Human PARP1 (Homo sapiens (Human), UniProt P09874); assay: PARP1 autoparsylation assay (LC/MS detection of nicotinamide); assay type: biochemical; details: 20 nM enzyme, 250 μM β-NAD+, 60 min
Experimental: (§1) The autoparsylation activity of the TNKS 1/2 or PARP1/2 enzymes was measured by the liquid chromatography-mass spectrometry (LC/MS) detection of nicotinamide as readout. Compound activity in inhibiting the TNKS and PARP autoparsylation was evaluated by IC50 measurements.

PARP2 = PARP2 (Mus musculus (Mouse), UniProt O88554); assay: PARP2 autoparsylation assay (LC/MS detection of nicotinamide); assay type: biochemical; details: 20 nM enzyme, 250 μM β-NAD+, 60 min
Experimental: as §1

[2] = tested on: Wnt ligand-induced signaling in HEK293 cells; assay: Wnt-responsive Super-TOpFlash (STF) luciferase reporter gene assay; assay type: cell-based; details: Homo sapiens, Wnt3A condition medium
Procedure, shortened: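 HEK293 cells (8000/well, 5% FBS medium) treated with 20% mouse L-cell Wnt3A conditioned medium plus compounds in 10-point serial dilution; luciferase read next day. Inhibition calculated relative to Wnt3A-induced signal without compound and background without Wnt3A CM or compound.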

[3] = tested on: Axin2 protein in SW480 cells; assay: Cellular ELISA assay of Axin2 protein stabilization; assay type: cell-based; details: Homo sapiens, 24 hrs, read-out: Axin AC50
Procedure, shortened: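 SW480 colorectal cells seeded overnight, treated with compound, then lysed. Axin2 in lysates measured by sandwich ELISA: anti-Axin2 capture antibody coated at 1 μg/ml (pH 9.2), lysate 2 h at room temperature, biotinylated anti-Axin2 detection 2 h, then streptavidin-HRP 30 min.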

[4] = tested on: Non-small lung cancer ABC-1 cells; assay: Cellular proliferation assay (CellTiter-Glo); assay type: cell-based; details: Homo sapiens, 72 h; ABC-1 cells, 3 days of compound treatment; read-out: ABC-1 IC50
Experimental: Cellular Proliferation Assay to Determine Compound Inhibition of Cancer Cell Growth
Viable cells were measured after 3 days of compound treatment using the CellTiter-Glo assay (Promega, G7570). Assay was performed following the manufacture protocol.

[5] = target: human tankyrase 1 PARP catalytic domain, TNKS1P (Homo sapiens (Human), UniProt O95271); assay: TNKS1 autoparsylation assay (LC/MS detection of nicotinamide); details: read-out: TNKS1 AP IC50, 20 nM enzyme, 250 μM β-NAD+, 60 min
[6] = target: tankyrase 2 protein PARP domain, TNKS2P (Homo sapiens (Human), UniProt Q9H2K2); assay: TNKS2 autoparsylation assay (LC/MS detection of nicotinamide); details: read-out: TNKS2 AP IC50, 20 nM enzyme, 250 μM β-NAD+, 60 min
Sequence of tankyrase 2 protein PARP domain, TNKS2P (Q9H2K2 959-1164): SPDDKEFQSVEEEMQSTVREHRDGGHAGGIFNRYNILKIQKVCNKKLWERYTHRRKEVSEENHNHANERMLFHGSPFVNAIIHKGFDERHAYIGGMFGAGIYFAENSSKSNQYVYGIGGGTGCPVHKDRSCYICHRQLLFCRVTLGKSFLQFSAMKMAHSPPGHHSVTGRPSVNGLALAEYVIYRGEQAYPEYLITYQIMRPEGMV

Sequence of PARP2 (O88554 whole entry): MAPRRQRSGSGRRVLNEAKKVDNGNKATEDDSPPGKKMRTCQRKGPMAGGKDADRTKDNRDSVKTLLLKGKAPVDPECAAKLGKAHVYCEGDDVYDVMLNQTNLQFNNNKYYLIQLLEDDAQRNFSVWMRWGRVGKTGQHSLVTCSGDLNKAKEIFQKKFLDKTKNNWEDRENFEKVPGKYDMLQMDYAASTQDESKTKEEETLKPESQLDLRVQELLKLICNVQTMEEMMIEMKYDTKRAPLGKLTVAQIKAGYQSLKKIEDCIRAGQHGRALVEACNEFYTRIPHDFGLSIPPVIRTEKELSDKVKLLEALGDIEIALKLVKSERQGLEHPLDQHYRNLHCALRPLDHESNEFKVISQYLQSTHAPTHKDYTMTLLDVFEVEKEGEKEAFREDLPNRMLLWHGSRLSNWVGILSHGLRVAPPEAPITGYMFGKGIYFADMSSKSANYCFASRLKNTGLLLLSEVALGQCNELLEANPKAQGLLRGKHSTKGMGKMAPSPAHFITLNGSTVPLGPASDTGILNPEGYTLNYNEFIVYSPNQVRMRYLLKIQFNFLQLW
Sequence of human tankyrase 1 PARP catalytic domain, TNKS1P (O95271 1112-1317): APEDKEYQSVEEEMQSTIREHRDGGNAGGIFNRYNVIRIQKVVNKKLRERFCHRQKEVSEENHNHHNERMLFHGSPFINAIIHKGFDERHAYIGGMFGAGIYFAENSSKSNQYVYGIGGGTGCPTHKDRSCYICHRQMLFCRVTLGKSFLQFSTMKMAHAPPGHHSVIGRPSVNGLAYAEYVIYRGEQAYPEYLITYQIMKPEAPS
Sequence of Human PARP1 (P09874 whole entry): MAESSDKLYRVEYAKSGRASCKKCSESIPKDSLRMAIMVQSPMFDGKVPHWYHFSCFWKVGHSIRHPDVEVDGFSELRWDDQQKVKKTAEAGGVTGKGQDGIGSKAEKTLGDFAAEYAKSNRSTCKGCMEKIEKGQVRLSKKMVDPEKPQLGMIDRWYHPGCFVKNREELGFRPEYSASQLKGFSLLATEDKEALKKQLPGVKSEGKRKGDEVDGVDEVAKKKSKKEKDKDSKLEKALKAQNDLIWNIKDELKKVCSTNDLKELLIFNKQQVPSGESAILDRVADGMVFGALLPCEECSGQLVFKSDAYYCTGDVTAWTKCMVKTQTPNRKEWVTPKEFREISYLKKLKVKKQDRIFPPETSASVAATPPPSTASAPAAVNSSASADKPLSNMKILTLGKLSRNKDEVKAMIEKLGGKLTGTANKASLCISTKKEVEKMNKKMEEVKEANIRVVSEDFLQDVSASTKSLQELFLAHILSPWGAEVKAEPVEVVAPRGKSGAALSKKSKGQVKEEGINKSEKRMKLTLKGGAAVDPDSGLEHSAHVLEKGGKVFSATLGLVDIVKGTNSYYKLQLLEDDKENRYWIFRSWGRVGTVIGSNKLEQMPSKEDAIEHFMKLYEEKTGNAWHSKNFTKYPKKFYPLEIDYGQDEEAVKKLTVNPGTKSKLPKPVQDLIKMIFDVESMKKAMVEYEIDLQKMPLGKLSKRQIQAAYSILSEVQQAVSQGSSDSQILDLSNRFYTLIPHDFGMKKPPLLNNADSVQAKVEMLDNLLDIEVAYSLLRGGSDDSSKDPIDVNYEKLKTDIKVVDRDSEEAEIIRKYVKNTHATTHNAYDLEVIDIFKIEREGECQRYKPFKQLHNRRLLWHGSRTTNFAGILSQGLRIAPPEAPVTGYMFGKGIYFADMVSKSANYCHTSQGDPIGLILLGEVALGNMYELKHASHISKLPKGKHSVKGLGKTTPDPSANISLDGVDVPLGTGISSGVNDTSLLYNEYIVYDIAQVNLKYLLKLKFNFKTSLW

| SMILES | HSV viral growth [1] | HSV viral protein expression [1] | IC50 (Human PARP1) [µM] | IC50 (PARP2) [µM] | IC50 [2] [µM] | AC50 [3] [µM] | IC50 [4] [µM] | IC50 [5] [µM] | IC50 [6] [µM] |
| --- | --- | --- | --- | --- | --- | --- | --- | --- | --- |
| Oc1nc(-c2ccc(C(F)(F)F)cc2)nc2c1CSCC2 [XAV939] | decreased viral growth | suppressed HSV viral protein expression | – | – | – | – | – | – | – |
| CC(C)N(Cc1nc2c(c(=O)[nH]1)COCC2)C(=O)CN1CCC(C(=O)c2ccc(F)cc2)CC1 [Example 33, 2-(4-(4-Fluorobenzoyl)piperidin-1-yl)-N-isopropyl-N-((4-oxo-4,5,7,8-tetrahydro-3H-pyrano[4,3-d]pyrimidin-2-yl)methyl)acetamide] | – | – | > 19 | > 19 | 0.059 ± 0.02 | 2.8 ± 1.4 | 0.69 ± 0.1 | 0.095 ± 0.001 | 0.02 ± 0.001 |
| O=C(c1ccc(F)cc1)C1CCN(CC(=O)N(Cc2nc3c(c(=O)[nH]2)COCC3)CC(F)(F)F)CC1 [Example 48, 2-[4-(4-Fluoro-benzoyl)-piperidin-1-yl]-N-(4-oxo-3,5,7,8-tetrahydro-4H-pyrano[4,3-d]pyrimidin-2-ylmethyl)-N-(2,2,2-trifluoro-ethyl)-acetamide] | – | – | > 19 | > 19 | 0.014 ± 0.006 | 0.61 ± 0.24 | 0.79 ± 0.18 | 0.055 ± 0.003 | 0.014 ± 0.001 |
| O=C(CN1CCC(C(=O)c2ccc3c(c2)CCO3)CC1)NCc1nc2c(c(=O)[nH]1)COCC2 [Example 91, 2-[4-(2,3-Dihydro-benzofuran-5-carbonyl)-piperidin-1-yl]-N-(4-oxo-3,5,7,8-tetrahydro-4H-pyrano[4,3-c]pyrimidin-2-ylmethyl)-acetamide] | – | – | 16.7 ± 0.4 | 4.53 ± 0.07 | 0.01 ± 0.007 | 0.053 ± 0.025 | 0.116 | 0.04 ± 0.01 | 0.02 |
| C[C@H](C1CC1)N(Cc1nc2c(c(=O)[nH]1)COCC2)C(=O)CN1CCC(C(=O)c2ccc(F)cc2)CC1 [Example 41, (R)—N-(1-Cyclopropylethyl)-2-(4-(4-fluorobenzoyl)piperidin-1-yl)-N-((4-oxo-4,5,7,8-tetrahydro-3H-pyrano[4,3-d]pyrimidin-2-yl)methyl)acetamide] | – | – | > 19 | > 19 | 0.032 ± 0.0014 | 0.72 ± 0.15 | 0.476 | 0.016 ± 0.001 | 0.032 ± 0.001 |
| COc1ccc(C(=O)C2CCN(CC(=O)NCc3nc(C)c(C)c(=O)[nH]3)CC2)cc1 [Example 12, N-((4,5-Dimethyl-6-oxo-1,6-dihydropyrimidin-2-yl)methyl)-2-(4-(4-methoxybenzoyl)piperidin-1-yl)acetamide] | – | – | > 19 | > 19 | 0.007 ± 0.004 | 0.032 ± 0.004 | 0.053 | 0.04 ± 0.002 | 0.02 ± 0.003 |
| O=C(c1ccc(F)cc1)C1CCN(CC(=O)N(Cc2nc3c(c(=O)[nH]2)COCC3)Cc2ccccc2F)CC1 [Example 39, 2-(4-(4-Fluorobenzoyl)piperidin-1-yl)-N-(2-fluorobenzyl)-N-((4-oxo-4,5,7,8-tetrahydro-3H-pyrano[4,3-d]pyrimidin-2-yl)methyl)acetamide] | – | – | > 19 | > 19 | 0.017 ± 0.003 | 0.112 ± 0.018 | 0.23 ± 0.099 | 0.043 ± 0.001 | 0.009 ± 0.001 |
| CC(C)Oc1ccc(C(=O)C2CCN(CC(=O)NCc3nc4c(c(=O)[nH]3)COCC4)CC2)cc1 [Example 3, 2-[4-(4-Isopropoxy-benzoyl)-piperidin-1-yl]-N-(4-oxo-3,5,7,8-tetrahydro-4H-pyrano[4,3-c]pyrimidin-2-ylmethyl)-acetamide] | – | – | 5.63 ± 0.73 | 2.1 ± 0.24 | 0.023 ± 0.002 | 0.062 ± 0.016 | 0.105 | 0.035 ± 0.009 | 0.014 ± 0.001 |
| COc1ccc(CN(Cc2nc3c(c(=O)[nH]2)COCC3)C(=O)CN2CCC(C(=O)c3ccc(F)cc3)CC2)cc1 [Example 16, 2-(4-(4-Fluorobenzoyl)piperidin-1-yl)-N-(4-methoxybenzyl)-N-((4-oxo-4,5,7,8-tetrahydro-3H-pyrano[4,3-d]pyrimidin-2-yl)methyl)acetamide] | – | – | > 19 | > 19 | 0.049 ± 0.043 | 0.587 ± 0.087 | 0.34 | 0.066 ± 0.004 | 0.015 ± 0.002 |
| CC[C@H](C)N(Cc1nc2c(c(=O)[nH]1)COCC2)C(=O)CN1CCC(C(=O)c2ccc(F)cc2)CC1 [Example 31, (S)—N-sec-Butyl-2-(4-(4-fluorobenzoyl)piperidin-1-yl)-N-((4-oxo-4,5,7,8-tetrahydro-3H-pyrano[4,3-d]pyrimidin-2-yl)methyl)acetamide] | – | – | > 19 | > 19 | 0.037 ± 0.009 | 1.1 ± 0.18 | 0.63 ± 0.4 | 0.038 ± 0.003 | 0.013 ± 0.001 |
| Cc1ccc(C(=O)C2CCN(CC(=O)NCc3nc4c(c(=O)[nH]3)COCC4)CC2)cc1 [Example 83, 2-[4-(4-Methyl-benzoyl)-piperidin-1-yl]-N-(4-oxo-3,5,7,8-tetrahydro-4H-pyrano[4,3-d]pyrimidin-2-ylmethyl)-acetamide] | – | – | 8.3 ± 3 | 2.3 ± 0.36 | > 10 | > 10 | > 10 | 0.064 | 0.018 ± 0.002 |
| O=C(CN1CCC(C(=O)c2ccc(OCC3CCC3)cc2)CC1)NCc1nc2c(c(=O)[nH]1)COCC2 [Example 86, 2-[4-(4-Cyclobutylmethoxy-benzoyl)-piperidin-1-yl]-N-(4-oxo-3,5,7,8-tetrahydro-4H-pyrano[4,3-d]pyrimidin-2-ylmethyl)-acetamide] | – | – | 2.05 ± 0.37 | 0.885 ± 0.037 | 0.82 ± 0.41 | 0.029 ± 0.008 | 0.041 | 0.03 ± 0.003 | 0.012 ± 0.001 |
| COCCOc1ccc(C(=O)C2CCN(CC(=O)NCc3nc4c(c(=O)[nH]3)COCC4)CC2)cc1 [Example 88, 2-{4-[4-(2-Methoxy-ethoxy)-benzoyl]-piperidin-1-yl}-N-(4-oxo-3,5,7,8-tetrahydro-4H-pyrano[4,3-d]pyrimidin-2-ylmethyl)-acetamide] | – | – | 6.8 ± 2 | 2.37 ± 0.52 | 0.021 ± 0.005 | 0.069 ± 0.007 | 0.087 | 0.026 ± 0.001 | 0.006 |
| O=C(c1ccc(OC(F)(F)F)cc1)C1CCN(CC(=O)N(Cc2nc3c(c(=O)[nH]2)COCC3)CC2CC2)CC1 [Example 70, N-Cyclopropylmethyl-N-(4-oxo-3,5,7,8-tetrahydro-4H-pyrano[4,3-c]pyrimidin-2-ylmethyl)-2-[4-(4-trifluoromethoxy-benzoyl)-piperidin-1-yl]-acetamide] | – | – | > 19 | > 19 | 0.008 ± 0.0016 | 0.135 ± 0.007 | 0.392 | 0.037 ± 0.002 | 0.008 |
| O=C(CN1CCC(C(=O)c2ccc(Cl)cc2)CC1)NCc1nc2c(c(=O)[nH]1)COCC2 [Example 2, 2-[4-(4-Chloro-benzoyl)-piperidin-1-yl]-N-(4-oxo-3,5,7,8-tetrahydro-4H-pyrano[4,3-d]-pyrimidin-2-ylmethyl)-acetamide] | – | – | 9.1 ± 1 | 2.59 ± 0.29 | 0.01 ± 0.002 | 0.205 ± 0.061 | 0.393 | 0.037 ± 0.002 | 0.007 |
| CC#CCOc1ccc(C(=O)C2CCN(CC(=O)N(Cc3nc4c(c(=O)[nH]3)COCC4)CC3CC3)CC2)cc1 [Example 78, 2-[4-(4-But-2-ynyloxy-benzoyl)-piperidin-1-yl]-N-cyclopropylmethyl-N-(4-oxo-3,5,7,8-tetrahydro-4H-pyrano[4,3-d]pyrimidin-2-ylmethyl)-acetamide] | – | – | 14.7 ± 4.6 | > 19 | 0.155 ± 0.008 | 1.92 ± 0.24 | 2.01 | 0.029 ± 0.002 | 0.015 ± 0.002 |
| CC(C)(C)CN(Cc1nc2c(c(=O)[nH]1)COCC2)C(=O)CN1CCC(C(=O)c2ccc(F)cc2)CC1 [Example 14, 2-(4-(4-Fluorobenzoyl)piperidin-1-yl)-N-neopentyl-N-((4-oxo-4,5,7,8-tetrahydro-3H-pyrano[4,3-d]pyrimidin-2-yl)methyl)acetamide] | – | – | > 19 | > 19 | 0.049 ± 0.023 | 0.501 ± 0.029 | 0.27 | 0.06 ± 0.007 | 0.02 ± 0.001 |
| O=C(c1ccc(F)cc1)C1CCN(CC(=O)N(Cc2nc3c(c(=O)[nH]2)COCC3)Cc2nc3ccccc3s2)CC1 [Example 17, N-(Benzo[d]thiazol-2-ylmethyl)-2-(4-(4-fluorobenzoyl)piperidin-1-yl)-N-((4-oxo-4,5,7,8-tetrahydro-3H-pyrano[4,3-d]pyrimidin-2-yl)methyl)acetamide] | – | – | > 19 | > 19 | 0.049 ± 0.037 | 0.125 ± 0.018 | 0.42 | 0.073 ± 0.003 | 0.018 ± 0.001 |
